# From patent US20210340526A1, “NOVEL METHOD FOR TRANSDUCING PROTEIN-PROTEIN INTERACTIONS” (ETH ZÜRICH, priority 2018, published 2021)
# How the values were obtained:
# [1] = system: CMV promoter; assay: iRFP expression from constitutive promoter under stimulation, HEK cells; format: cell-based; conditions: 1 μM of procaterol or 2 μM of epinephrine versus DMEM without ligand
# Protocol: (§1) (a) iRFP fluorescence of HEK cells transfected with the plasmid expressing iRFP from the CMV promoter (white bar) or from the EF1α promoter (black bars). The reporter expression in DMEM without any ligand or in the presence of 1 μM of procaterol or 2 μM of epinephrine is shown as indicated. The bar charts display iRFP level normalized to the frequency of the transfection marker Citrine-positive cells (rel. u.) as mean±SD of independent biological triplicates. (b) Activity of the NarX/NarL expressed from CMV or EF1a promoters. Every transfection contains NarL-regulated mCerulean fluorescent protein reporter and plasmids expressing NarL and NarX from CMV, EF1α or EF1α-V1 promoters, as indicated in the chart.
# (§2) For any synthetic signalling system, it is important to avoid non-specific changes to the signalling readout. In the system of the invention, the components are expressed from constitutive promoters. However, these promoters are in fact controlled by highly-expressed transcription factors such as Sp1, and there is always a risk that these factors are directly affected by external stimuli via unrelated endogenous pathways. This would result in the change of constitutive expression, and apparent change in the signalling readout that is unrelated to the studied effect and is artefactual. To eliminate these confounding factors, the inventors examined a number of constitutive promoters for their robustness under various stimulation conditions and compared the expression of iRFP from the CMV and EF1α promoters in the presence of different compounds often used to induce cell signalling (Epinephrine and procaterol).
# [2] = system: EF1α promoter; assay: as above; format: cell-based; conditions: 1 μM of procaterol or 2 μM of epinephrine versus DMEM without ligand
# Protocol: as §1, §2
# [3] = target: T1, GPCR ADRB2-AVPR2 (Homo sapiens, UniProt P07550, E27Q/G16R); assay: two-component (NarX/NarL) reporter assay of GPCR/beta-arrestin interaction, pair ADRB2-AVPR2::H^mut and beta-arrestin::N^mut, in HEK293 cells; format: cell-based
# T1 construct: expressed in transfected cells; host or cells: HEK293
# [4] = system: NarX/NarL system; assay: control: effect of ligand on NarX/NarL signalling in HEK cells; format: cell-based; conditions: 100 nM; HEK cells with NarX or NarX^379to598, NarL and NarL-activated reporter
# Protocol: To find out if NarX domains are capable of transducing this interaction (FIG. 3a), the complementing histidine and asparagine NarX mutants described above were fused at their N-terminus to the FKBP (FK) and the FRB^T2098L (FR) proteins, respectively, resulting in the fusions FK::NarX^379to598H399Q (FK::H^mut) and FR::NarX^379to598N509A (FR::N^mut), and the inverse pair FR::H^mut and FK::N^mut. […]
# The cells were prepared for FACS analysis 48 h after transfection by removing the medium and incubating the cells with 200 μl StemPro™ Accutase™ Cell Dissociation Reagent (Gibco, cat #A11105-01) at 37° C. for 5 minutes. […] The prepared samples were measured using a BD LSR Fortessa II Cell Analyzer with a combination of excitation and emission that minimizes the crosstalk between different fluorescent reporters. Cerulean was measured with a 445 nm laser and a 473/10 nm emission filter, mCherry with a 561 nm excitation laser coupled to a 600 nm longpass filter and 610/20 emission filter. The Cerulean and the mCherry were measured, respectively, at PMT voltage of 330 and 310 in all the experiments. […]
# [5] = target: ADRB2^1to341::AVPR2^343to371::NarX^379to598 H399Q (UniProt P07550); assay: cell-based or functional assay
# [6] = target: FKBP and FRB^T2098L (Homo sapiens, UniProt P42345+P62942, T2098L); assay: two-component (NarX/NarL) reporter assay of ligand-induced FKBP/FRB heterodimerization in HEK293 cells; format: cell-based; conditions: pair FR::H^mut and FK::N^mut, NarL and NarL-activated mCerulean reporter, HEK293, Hill function fit of dose-response; read-out: EC50 in the context of the assay
# FKBP and FRB^T2098L, sequence (P62942 whole entry, the tested form may be a part): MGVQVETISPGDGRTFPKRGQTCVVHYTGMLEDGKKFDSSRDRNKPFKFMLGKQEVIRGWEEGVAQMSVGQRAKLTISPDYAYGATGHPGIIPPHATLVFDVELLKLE
# FKBP and FRB^T2098L, sequence (P42345 2012-2144 T2098L limits assumed): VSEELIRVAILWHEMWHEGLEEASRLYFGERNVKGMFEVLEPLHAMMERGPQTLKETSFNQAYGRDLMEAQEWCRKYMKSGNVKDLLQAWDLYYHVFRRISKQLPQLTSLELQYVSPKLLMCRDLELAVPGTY
# Source text: To enable bona fide signalling, the dimerization of the NarX domains should be preferably controlled by an external stimulus. Inducible protein-protein interaction is a common signalling mechanism both in the cytoplasm and across the membrane. A well characterized ligand-induced heterodimerization takes place between the proteins FK506-binding protein 12 (FKBP) and FKBP12-rapamycin binding domain (FRB) mutant FRB^T2098L in the presence of the small molecule A/C heterodimerize (a rapamycin analog Cl 6-(S)-7-methylindolerapamycin, known also as AP21967).
# To find out if NarX domains are capable of transducing this interaction (FIG. 3a), the complementing histidine and asparagine NarX mutants described above were fused at their N-terminus to the FKBP (FK) and the FRB^T2098L (FR) proteins, respectively, resulting in the fusions FK::NarX^379to598H399Q (FK::H^mut) and FR::NarX^379to598N509A (FR::N^mut), and the inverse pair FR::H^mut and FK::N^mut. […] Next, the inventors probed the ligand-induced signalling in a fashion similar to the one used for SynZip1-SynZip2 experiments, expressing different fusion variants and control constructs in HEK293 cells, in the presence of the response regulator NarL and NarL-activated reporter construct, this time with and without the ligand (FIG. 3b, FIG. 8). As expected, full length wild type NarX was constitutively active. […]
compound,measurement,setting,value
CNC[C@H](O)c1ccc(O)c(O)c1 [epinephrine],activity of the CMV promoter (iRFP expression),[1],induced by a factor of two
same,activity of the EF1α promoter (iRFP expression),[2],not affected
CCC(NC(C)C)C(O)c1ccc(O)c2[nH]c(=O)ccc12 (stereo not drawn) [procaterol],EC50,"[3]; ADRB2-AVPR2::H^mut and beta-arrestin::N^mut, NarL-regulated mCerulean reporter, HEK293, read-out: EC50 from the dose-response curves",5 nM
same,induction dynamic range of procaterol-triggered signalling,"[3]; complementary NarX mutants fused to the GPCR receptor and beta-arrestin, with versus without procaterol",above 3 orders of magnitude
same,maximum response of downstream gene expression,"[3]; saturating doses, full agonists",reach the same maximum response
same,activity of the CMV promoter (iRFP expression),[1],induced by a factor of two
same,activity of the EF1α promoter (iRFP expression),[2],not affected
same,effect on signalling via the wild-type NarX/NarL system,[4],did not affect
ARRB2::NarX^379to598 N509A (from UniProt P32121 1-409),EC50 of the small-molecule agonist isoproterenol for reporter induction,[5],30 nM
same,EC50 of the small-molecule agonist procaterol for reporter induction,[5],5 nM
same,EC50 of the small-molecule partial agonist clenbuterol for reporter induction,[5],14 nM
same,IC50 of the small-molecule antagonist propranolol in the presence of procaterol (reporter),[5],2 nM
same,reporter expression with the partial agonist clenbuterol against the full agonists,[5],3.5 times lower
Cl 6-(S)-7-methylindolerapamycin [A/C],EC50,[6],1.3 nM
same,effect on signalling via the wild-type NarX/NarL system,[4],did not affect
